Measured values reported in PubChem BioAssay AID1963831 (Molecular Pharmacology Branch, DTP, NCI, 2024).

Test system: 889142-216-R-J1-PDC complex spheroid viability
Assay: Anticancer human tumor 889142-216-R-J1-PDC patient-derived bladder carcinoma cell line growth inhibition [POLQ]
Details: for IC50: curve of first compound; for viability, T/C: stronger effect = lower value
Outline: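 PDC + HUVEC + MSC complex spheroids; POLQ inhibitors ± partner drugs; top conc. at/near clinical Cmax, else 10 microM (SN-38 1 microM), half-log dilutions; 37 degrees C, 5% CO2.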

[1] = second compound 0.0316 µM, first compound 0.0316 µM
[2] = second compound 0.0316 µM, first compound 0.1 µM
[3] = second compound 0.0316 µM, first compound 0.316 µM
[4] = second compound 0.0316 µM, first compound 1 µM
[5] = second compound 0.0316 µM, first compound 3.16 µM
[6] = second compound 0.0316 µM, first compound 10 µM
[7] = second compound 0.1 µM, first compound 0.0316 µM
[8] = second compound 0.1 µM, first compound 0.1 µM
[9] = second compound 0.1 µM, first compound 0.316 µM
[10] = second compound 0.1 µM, first compound 1 µM
[11] = second compound 0.1 µM, first compound 3.16 µM
[12] = second compound 0.1 µM, first compound 10 µM
[13] = second compound 0.316 µM, first compound 0.0316 µM
[14] = second compound 0.316 µM, first compound 0.1 µM
[15] = second compound 0.316 µM, first compound 0.316 µM
[16] = second compound 0.316 µM, first compound 1 µM
[17] = second compound 0.316 µM, first compound 3.16 µM
[18] = second compound 0.316 µM, first compound 10 µM
[19] = second compound 1 µM, first compound 0.0316 µM
[20] = second compound 1 µM, first compound 0.1 µM
[21] = second compound 1 µM, first compound 0.316 µM
[22] = second compound 1 µM, first compound 1 µM
[23] = second compound 1 µM, first compound 3.16 µM
[24] = second compound 1 µM, first compound 10 µM
[25] = second compound 3.16 µM, first compound 0.0316 µM
[26] = second compound 3.16 µM, first compound 0.1 µM
[27] = second compound 3.16 µM, first compound 0.316 µM
[28] = second compound 3.16 µM, first compound 1 µM
[29] = second compound 3.16 µM, first compound 3.16 µM
[30] = second compound 3.16 µM, first compound 10 µM
[31] = second compound 10 µM, first compound 0.0316 µM
[32] = second compound 10 µM, first compound 0.1 µM
[33] = second compound 10 µM, first compound 0.316 µM
[34] = second compound 10 µM, first compound 1 µM
[35] = second compound 10 µM, first compound 3.16 µM
[36] = second compound 10 µM, first compound 10 µM
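Note: spheroids exposed to compounds for seven days.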
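Throughout, for viability, T/C: 100% = DMSO vehicle control viability.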

COc1cc(C2c3cc4c(cc3C(OC3OC5COC(C)OC5C(O)C3O)C3COC(=O)C23)OCO4)cc(OC)c1O (stereo unspecified) + Cc1cccc(N(C)C(=O)C2C(O)CCN2c2nc(C)cc(C(F)(F)F)c2C#N)c1
IC50 (second compound 0.0316 µM): > 10000 nM | IC50 (second compound 0.1 µM): > 10000 nM | IC50 (second compound 0.316 µM): > 10000 nM | IC50 (second compound 1 µM): > 10000 nM | IC50 (second compound 3.16 µM): > 10000 nM | IC50 (second compound 10 µM): 4630 nM | viability, T/C [1]: 83.9% | viability, T/C [2]: 74.5% | viability, T/C [3]: 65.3% | viability, T/C [4]: 53.5% | viability, T/C [5]: 65.1% | viability, T/C [6]: 66% | viability, T/C [7]: 82.6% | viability, T/C [8]: 85.2% | viability, T/C [9]: 70.9% | viability, T/C [10]: 56.4% | viability, T/C [11]: 68.5% | viability, T/C [12]: 57.6% | viability, T/C [13]: 93.1% | viability, T/C [14]: 86.9% | viability, T/C [15]: 59.4% | viability, T/C [16]: 64% | viability, T/C [17]: 70.1% | viability, T/C [18]: 52.6% | viability, T/C [19]: 86.2% | viability, T/C [20]: 83.6% | viability, T/C [21]: 62% | viability, T/C [22]: 45.9% | viability, T/C [23]: 70.6% | viability, T/C [24]: 58.8% | viability, T/C [25]: 83% | viability, T/C [26]: 81.2% | viability, T/C [27]: 64.2% | viability, T/C [28]: 62.1% | viability, T/C [29]: 62.4% | viability, T/C [30]: 52.4% | viability, T/C [31]: 77.4% | viability, T/C [32]: 74.1% | viability, T/C [33]: 61% | viability, T/C [34]: 61% | viability, T/C [35]: 59.8% | viability, T/C [36]: 40.4%

COc1cccc2c1C(=O)c1c(O)c3c(c(O)c1C2=O)CC(O)(C(=O)CO)CC3OC1CC(N)C(O)C(C)O1 (stereo unspecified) + Cc1cccc(N(C)C(=O)C2C(O)CCN2c2nc(C)cc(C(F)(F)F)c2C#N)c1
IC50 (second compound 0.0316 µM): 244 nM | IC50 (second compound 0.1 µM): 148 nM | IC50 (second compound 0.316 µM): 150 nM | IC50 (second compound 1 µM): 196 nM | IC50 (second compound 3.16 µM): 183 nM | IC50 (second compound 10 µM): 135 nM | viability, T/C [1]: 70.9% | viability, T/C [2]: 69.3% | viability, T/C [3]: 44.2% | viability, T/C [4]: 2.17% | viability, T/C [5]: 0.48% | viability, T/C [6]: 1.56% | viability, T/C [7]: 77% | viability, T/C [8]: 56.6% | viability, T/C [9]: 34.7% | viability, T/C [10]: 2.14% | viability, T/C [11]: 1.04% | viability, T/C [12]: 1.26% | viability, T/C [13]: 57.3% | viability, T/C [14]: 59.7% | viability, T/C [15]: 35.2% | viability, T/C [16]: 4.5% | viability, T/C [17]: 0.81% | viability, T/C [18]: 0.94% | viability, T/C [19]: 58.9% | viability, T/C [20]: 78% | viability, T/C [21]: 37% | viability, T/C [22]: 2.29% | viability, T/C [23]: 1.29% | viability, T/C [24]: 1.22% | viability, T/C [25]: 61.8% | viability, T/C [26]: 69% | viability, T/C [27]: 36.2% | viability, T/C [28]: 1.55% | viability, T/C [29]: 1.05% | viability, T/C [30]: 0.85% | viability, T/C [31]: 55.7% | viability, T/C [32]: 62.4% | viability, T/C [33]: 24.7% | viability, T/C [34]: 0.91% | viability, T/C [35]: 0.87% | viability, T/C [36]: 1.31%

Nc1ccn(C2OC(CO)C(O)C2(F)F)c(=O)n1 (stereo unspecified) + Cc1cccc(N(C)C(=O)C2C(O)CCN2c2nc(C)cc(C(F)(F)F)c2C#N)c1
IC50 (second compound 0.0316 µM): 177 nM | IC50 (second compound 0.1 µM): 138 nM | IC50 (second compound 0.316 µM): 140 nM | IC50 (second compound 1 µM): 330 nM | IC50 (second compound 3.16 µM): 213 nM | IC50 (second compound 10 µM): 99.1 nM | viability, T/C [1]: 67.7% | viability, T/C [2]: 49.5% | viability, T/C [3]: 48.8% | viability, T/C [4]: 40.5% | viability, T/C [5]: 40.4% | viability, T/C [6]: 31.4% | viability, T/C [7]: 59% | viability, T/C [8]: 53.9% | viability, T/C [9]: 44.5% | viability, T/C [10]: 39.1% | viability, T/C [11]: 44% | viability, T/C [12]: 36.3% | viability, T/C [13]: 55.6% | viability, T/C [14]: 50.4% | viability, T/C [15]: 46% | viability, T/C [16]: 45% | viability, T/C [17]: 39.1% | viability, T/C [18]: 34% | viability, T/C [19]: 58.3% | viability, T/C [20]: 57.9% | viability, T/C [21]: 49.2% | viability, T/C [22]: 43.9% | viability, T/C [23]: 38.7% | viability, T/C [24]: 32.5% | viability, T/C [25]: 54.7% | viability, T/C [26]: 54.7% | viability, T/C [27]: 47.7% | viability, T/C [28]: 43.7% | viability, T/C [29]: 37.5% | viability, T/C [30]: 31.7% | viability, T/C [31]: 69.2% | viability, T/C [32]: 49% | viability, T/C [33]: 43.9% | viability, T/C [34]: 43.8% | viability, T/C [35]: 46.6% | viability, T/C [36]: 34%
